Experimental data as given in publication PMC11968843, “Sulphostin-inspired N-phosphonopiperidones as selective covalent DPP8 and DPP9 inhibitors” (Nature Communications, 2025).

Assays:
[1] = biological target: T1, DPP8 (Homo sapiens, UniProt Q6V1X1); experiment: biochemical; format: biochemical
T1 construct: purchased Proteros Biostructures GmbH, Germany
Protocol: (§1) Enzyme activity of DPP4, DPP8, DPP9 (Proteros Biostructures GmbH, Germany) and PREP (Sigma Aldrich, USA) was determined by measuring the initial velocity of AMC release from the fluorogenic substrate GP-AMC (Sigma Aldrich, USA) using a Tecan Spark® 10 M multimode microplate reader (Tecan Group Ltd., Switzerland) in activity buffer (20 mM HEPES/KOH pH 7.3, 110 mM potassium acetate, 2 mM Mg acetate, 0.5 mM EGTA, 0.02% Tween 20, supplemented with 1 mM DTT) and a final volume of 20 μL for maximal 60 min at 30 °C. Prior to activity measurement, 10 nM enzyme was incubated for 45 min at 30 °C and gentle shaking with the inhibitor compounds in concentrations ranging from 0 to 100 μM. The compounds were dissolved in DMSO and diluted in activity buffer (final DMSO concentration: 1%). […] IC50 values were calculated using Graph-Pad Prism v10.2.3 using the equation: [Inhibitor] vs. response—Variable slope (four parameters). All measurements were performed in triplicates and error bars represent standard errors of the fit.

[2] = biological target: T2, DPP9 (Homo sapiens, UniProt Q86TI2); experiment: Native MS of DPP9 dimer after incubation with inhibitor; conditions: 50 µM, 90 min
Target sequence in this assay (Q86TI2 20-863): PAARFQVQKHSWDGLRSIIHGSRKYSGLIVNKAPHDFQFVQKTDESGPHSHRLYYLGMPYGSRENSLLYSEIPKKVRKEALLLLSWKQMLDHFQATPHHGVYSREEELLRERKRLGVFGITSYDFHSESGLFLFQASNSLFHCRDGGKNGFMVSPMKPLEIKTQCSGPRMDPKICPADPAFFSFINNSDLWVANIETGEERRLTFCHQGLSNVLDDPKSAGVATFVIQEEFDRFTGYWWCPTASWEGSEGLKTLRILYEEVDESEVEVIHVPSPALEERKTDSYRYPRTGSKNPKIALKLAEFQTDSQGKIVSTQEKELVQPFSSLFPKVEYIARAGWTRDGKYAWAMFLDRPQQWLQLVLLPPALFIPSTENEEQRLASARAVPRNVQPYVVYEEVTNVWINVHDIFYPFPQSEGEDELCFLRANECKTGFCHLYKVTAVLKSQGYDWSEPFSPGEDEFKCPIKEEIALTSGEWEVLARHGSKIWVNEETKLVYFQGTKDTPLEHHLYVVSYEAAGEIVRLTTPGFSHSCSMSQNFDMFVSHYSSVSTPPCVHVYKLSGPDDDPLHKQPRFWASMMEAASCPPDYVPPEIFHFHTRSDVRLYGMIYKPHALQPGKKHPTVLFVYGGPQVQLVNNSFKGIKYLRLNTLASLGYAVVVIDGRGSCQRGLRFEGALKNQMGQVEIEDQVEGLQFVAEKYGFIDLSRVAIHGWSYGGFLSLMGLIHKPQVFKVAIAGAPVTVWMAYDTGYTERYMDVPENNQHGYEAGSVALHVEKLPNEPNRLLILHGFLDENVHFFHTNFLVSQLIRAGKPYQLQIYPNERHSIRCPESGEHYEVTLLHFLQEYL
Protocol: For this purpose, a rebuffering procedure using 10 kDa molecular weight cut-off spin-filter columns (Merck Millipore, USA) was applied for five cycles[58]. The resulting protein concentration was determined using microvolume spectroscopy (DS-11+, DeNovix, USA) and adjusted to 5 µM with 200 mM NH4OAc. […] A total number of 1000 MS spectra were recorded in positive EMR mode on an Exactive Plus EMR Orbitrap mass spectrometer (Thermo Fisher Scientific, USA) calibrated with CsI (2 mg mL^-1; Thermo Fisher Scientific, USA).
UniDec software (version 6.0.4) was used for mass deconvolution[59]. For this purpose, the default settings were used within an m/z range of 6500 to 9500, with the exception of a higher deconvolution resolution (sample mass every 1 Da), a narrower peak detection window (peak detection range of 80 Da) and a total peak normalization. GraphPad Prism v8.0.1 was used for data visualization.

[3] = biological target: T2, DPP9; experiment: Time-dependent DPP9 inhibition kinetics (kobs, KI, kinact, kapp); format: biochemical; parameters: purchased Proteros Biostructures GmbH, Germany
Protocol: (§2) To calculate the reaction rate of covalent bond formation between DPP proteins and inhibitor, kinact, KI and kapp was determined as previously described[30],[51]. Therefore, 250 µM GP-AMC was added simultaneously with a serial dilution of the inhibitor to 10 nM enzyme. Enzyme activity was measured for a maximum of 120 min at 30 °C, and fluorescence intensities were then plotted against time. Data was fitted to the following equation: Y=(vi/kobs)*(1−exp(−kobs*X)) using Graph-Pad Prism v10.2.3. The obtained pseudo-first-order rate constant was used to determine the maximum enzyme inhibition rate (kinact) and binding affinity (KI) by fitting the plot of kobs against inhibitor concentration to the following equation: Y=kinact/1+(KI/[I]) . The efficiency of covalent bond formation (kapp) was calculated by the ratio of kinact/KI. All measurements were performed in triplicates and error bars represent standard errors of the fit.
Target sequence in this assay (Q86TI2 whole entry): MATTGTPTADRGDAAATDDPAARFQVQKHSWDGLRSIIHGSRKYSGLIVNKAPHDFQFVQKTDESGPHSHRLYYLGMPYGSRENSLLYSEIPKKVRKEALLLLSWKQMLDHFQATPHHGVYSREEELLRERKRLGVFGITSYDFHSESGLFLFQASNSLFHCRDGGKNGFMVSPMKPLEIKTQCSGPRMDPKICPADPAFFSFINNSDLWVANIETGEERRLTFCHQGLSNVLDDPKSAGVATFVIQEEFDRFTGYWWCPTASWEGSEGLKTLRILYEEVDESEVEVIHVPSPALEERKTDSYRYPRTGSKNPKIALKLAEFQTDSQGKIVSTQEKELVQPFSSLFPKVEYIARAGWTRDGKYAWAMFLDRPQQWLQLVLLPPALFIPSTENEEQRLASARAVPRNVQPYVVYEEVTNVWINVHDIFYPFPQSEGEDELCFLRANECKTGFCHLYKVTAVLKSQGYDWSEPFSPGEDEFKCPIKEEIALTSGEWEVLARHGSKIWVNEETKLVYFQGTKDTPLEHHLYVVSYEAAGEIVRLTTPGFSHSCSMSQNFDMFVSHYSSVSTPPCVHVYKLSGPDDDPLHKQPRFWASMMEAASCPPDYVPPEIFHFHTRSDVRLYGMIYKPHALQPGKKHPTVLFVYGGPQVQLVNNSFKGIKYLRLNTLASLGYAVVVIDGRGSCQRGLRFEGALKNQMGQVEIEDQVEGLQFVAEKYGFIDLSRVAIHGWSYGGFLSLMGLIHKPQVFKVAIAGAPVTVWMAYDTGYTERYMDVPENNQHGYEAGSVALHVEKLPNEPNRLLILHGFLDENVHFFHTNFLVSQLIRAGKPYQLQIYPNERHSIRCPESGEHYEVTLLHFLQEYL

[4] = biological target: T1, DPP8; experiment: Time-dependent DPP8 inhibition kinetics (kobs, KI, kinact, kapp); format: biochemical
Protocol: as §2

[5] = biological target: T2, DPP9; experiment: biochemical; format: biochemical; parameters: purchased Proteros Biostructures GmbH, Germany
Protocol: as §1
Target sequence in this assay (Q86TI2 whole entry): as above

[6] = tested on: serine hydrolases (≡FP target proteins) in HEK293 cell lysates; experiment: Competitive ABPP with fluorophosphonate-alkyne (≡FP) in HEK293 cell lysates; format: binding, H. sapiens; conditions: 50 µM pre-incubation 2 h, 2 µM ≡FP

T1 sequence (Q6V1X1 whole entry): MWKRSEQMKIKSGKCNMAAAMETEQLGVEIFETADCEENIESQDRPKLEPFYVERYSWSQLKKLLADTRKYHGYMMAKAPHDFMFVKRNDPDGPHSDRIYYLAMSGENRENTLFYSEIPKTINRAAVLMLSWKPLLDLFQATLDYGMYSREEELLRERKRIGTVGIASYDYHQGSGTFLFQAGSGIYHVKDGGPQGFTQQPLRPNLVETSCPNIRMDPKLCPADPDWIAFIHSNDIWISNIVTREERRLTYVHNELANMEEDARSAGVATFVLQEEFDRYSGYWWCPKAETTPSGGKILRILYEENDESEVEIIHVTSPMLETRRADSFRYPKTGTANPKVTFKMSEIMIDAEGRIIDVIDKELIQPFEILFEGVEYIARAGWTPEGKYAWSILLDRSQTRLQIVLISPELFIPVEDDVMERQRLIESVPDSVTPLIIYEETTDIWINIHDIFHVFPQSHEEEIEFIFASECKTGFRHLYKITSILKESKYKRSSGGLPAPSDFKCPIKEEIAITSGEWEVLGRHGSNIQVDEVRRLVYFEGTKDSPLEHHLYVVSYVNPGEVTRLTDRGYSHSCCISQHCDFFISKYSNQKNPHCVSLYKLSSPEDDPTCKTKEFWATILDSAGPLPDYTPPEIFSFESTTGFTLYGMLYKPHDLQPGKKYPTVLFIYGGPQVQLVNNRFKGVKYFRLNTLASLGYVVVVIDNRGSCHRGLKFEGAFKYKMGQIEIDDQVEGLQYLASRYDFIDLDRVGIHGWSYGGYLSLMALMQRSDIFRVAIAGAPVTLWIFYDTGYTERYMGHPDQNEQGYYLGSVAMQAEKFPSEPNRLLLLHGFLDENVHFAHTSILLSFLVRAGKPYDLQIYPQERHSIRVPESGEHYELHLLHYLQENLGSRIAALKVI

How did the IC50 [1] turn out when `N[C@H]1CCCN([P@@](N)(=O)NS(=O)(=O)O)C1=O` [Sulphostin] was run?
Its IC50 is 6.93 ± 0.62 µM.

And the remaining activity at 1.5625 µM ([1]; read-out: DPP8 activity [%], c 1562.5 nM)?
The remaining activity at 1.5625 µM was 93.5%.

What about the remaining activity at 3.125 µM ([1]; read-out: DPP8 activity [%], c 3125 nM) of the same compound?
Its remaining activity at 3.125 µM is 73.6%.

And the remaining activity at 6.25 µM ([1]; read-out: DPP8 activity [%], c 6250 nM)?
The remaining activity at 6.25 µM was 47.7%.

What about the remaining activity at 25 µM ([1]; read-out: DPP8 activity [%], c 25000 nM) of the same compound?
The remaining activity at 25 µM was 11.8%.

What about the remaining activity at 50 µM ([1]; read-out: DPP8 activity [%], c 50000 nM) of the same compound?
The remaining activity at 50 µM was 5.62%.

What about the remaining activity at 100 µM ([1]; read-out: DPP8 activity [%], c 100000 nM) of the same compound?
Its remaining activity at 100 µM is 3.57%.

And the “Difference [Da] between doubly and singly modified DPP9 dimer” value [2]?
The value was 156 Da.

And the “Intensity [%] of DPP9 dimer with one modification” value [2]?
The value was 44.37%.

What about the “Intensity [%] of DPP9 dimer with two modifications” value [2] of the same compound?
The value was 32.64%.

And the “Intensity [%] of unmodified DPP9 dimer” value [2]?
The value was 22.99%.

What about the “increase of DPP9 molecular weight, both active sites of the dimer modified” value [2] of the same compound?
Its value is 311 Da.

What about the “increase of DPP9 molecular weight, first adduct (one active site of the dimer modified)” value [2] of the same compound?
The value was 155 Da.

What about the “kobs DPP9” value ([3]; c 0.15625 µM) of the same compound?
The value was 6.239e-05 s⁻¹.

And the “kobs DPP9” value ([3]; c 5 µM)?
Its value is 0.0002112 s⁻¹.

And the “kapp DPP9” value ([3]; ratio kinact/KI)?
The value was 317 M⁻¹ s⁻¹.

What about the KI (inactivation) ([3]; read-out: KI [M] best fit DPP9, source data) of the same compound?
The KI (inactivation) was 7.33e-07 M.

What about the “kobs DPP8” value ([4]; c 1.5625 µM) of the same compound?
Its value is 3.383e-05 s⁻¹.

And the “kobs DPP8” value ([4]; c 6.25 µM)?
Its value is 4.011e-05 s⁻¹.

What about the “kobs DPP8” value ([4]; c 25 µM) of the same compound?
The value was 0.0001308 s⁻¹.

What about the “kobs DPP8” value ([4]; c 50 µM) of the same compound?
The value was 0.0001589 s⁻¹.

And the “kapp DPP8” value ([4]; ratio kinact/KI)?
Its value is 11 M⁻¹ s⁻¹.

What about the KI (inactivation) ([4]; read-out: KI [M] best fit DPP8, source data) of the same compound?
Its KI (inactivation) is 2.11e-05 M.

What about the IC50 [5] of the same compound?
The IC50 was 1.39 ± 0.108 µM.

What about the remaining activity at 0.15625 µM ([5]; read-out: DPP9 activity [%], c 156.25 nM) of the same compound?
The remaining activity at 0.15625 µM was 93.2%.

What about the remaining activity at 0.3125 µM ([5]; read-out: DPP9 activity [%], c 312.5 nM) of the same compound?
The remaining activity at 0.3125 µM was 87.7%.

What about the remaining activity at 2.5 µM ([5]; read-out: DPP9 activity [%], c 2500 nM) of the same compound?
The remaining activity at 2.5 µM was 28.5%.

What about the remaining activity at 5 µM ([5]; read-out: DPP9 activity [%], c 5000 nM) of the same compound?
Its remaining activity at 5 µM is 16.7%.

And the remaining activity at 10 µM ([5]; read-out: DPP9 activity [%], c 10000 nM)?
Its remaining activity at 10 µM is 10.8%.

And the remaining activity at 25 µM ([5]; read-out: DPP9 activity [%], c 25000 nM)?
Its remaining activity at 25 µM is 5%.

What about the remaining activity at 50 µM ([5]; read-out: DPP9 activity [%], c 50000 nM) of the same compound?
The remaining activity at 50 µM was 3.52%.

And the remaining activity at 100 µM ([5]; read-out: DPP9 activity [%], c 100000 nM)?
Its remaining activity at 100 µM is 2.34%.

And the “competition of ≡FP labeling” value [6]?
Its value is “significantly competed only the labeling of DPP8/9”.
